pEC50, pIC50: −log10 of the molar value.
Tests used:
C8166 = assay: Compound was evaluated for the inhibition of p24 viral antigen production in C-8166 cells.; assay type: functional, cell-based; settings: Homo sapiens
MT4 [1] = assay: Compound was evaluated for the inhibition of HIV-1 induced cytopathic effect in MT-4 cells.; assay type: functional, cell-based; settings: Homo sapiens
Human alphaherpesvirus 1 [2] = assay: Inhibitory activity against HSV-1 replication; assay type: functional, organism-based
[3] = Ratio of kinetic parameters of Vmax to Km was reported
MT4 [4] = assay: Compound was evaluated for the concentration required to reduce the viability of MT-4 cells.; assay type: functional; settings: Homo sapiens
Human betaherpesvirus 5 [5] = assay: Inhibition of HCMV replication in Vero cells at 250 uM; No inhibition; assay type: functional, organism-based
Human betaherpesvirus 5 [6] = assay: Inhibition of HCMV replication in MRC-5 cells; No inhibition; assay type: functional, organism-based; settings: mrc5
Human alphaherpesvirus 1 [7] = assay: Tested for activity against HSV-1; Not active; assay type: functional, organism-based
Vero = assay: Cytotoxicity against Vero cells up to 250 uM; Not active; assay type: functional, cell-based, Chlorocebus sabaeus
Human alphaherpesvirus 1 [8] = assay: Anti-HSV-1 activity at 300 uM; Not active; assay type: functional, organism-based

| SMILES | pEC50 (C8166) | pEC50 (MT4 [1]) | pIC50 (Human alphaherpesvirus 1 [2]) | Ratio [3] | CC50 (MT4 [4]) [µM] | IC50 (Human betaherpesvirus 5 [5]) | IC50 (Human betaherpesvirus 5 [6]) | IC50 (Human alphaherpesvirus 1 [7]) | IC50 (Vero) | IC50 (Human alphaherpesvirus 1 [8]) |
| --- | --- | --- | --- | --- | --- | --- | --- | --- | --- | --- |
| Cc1cn([C@H]2C[C@H](N=[N+]=[N-])[C@@H](CO)O2)c(=O)[nH]c1=O [ZIDOVUDINE] | 7.40 | 7.40 | – | – | – | – | – | – | – | – |
| Nc1ncnc2c1ncn2CCOCP(=O)(O)O [ADEFOVIR] | 5.82 | 4.70 | 3.93 | – | – | – | – | – | – | – |
| Nc1nc2c(ncn2[C@@H]2O[C@H](COP(=O)(O)O)[C@H](O)[C@@H]2O)c(=O)[nH]1 | – | – | – | 100 | – | – | – | – | – | – |
| O=c1[nH]cnc2c1ncn2[C@H]1CC[C@@H](CO)O1 [DIDANOSINE] | 6.05 | 4.89 | – | – | > 1000 | – | – | – | – | – |
| C=C(/C=C/P(=O)(O)O)CCn1cnc2c(O)nc(N)nc21 | 5.10 | 4.31 | – | 102 | > 1000 | Not Active | Not Active | Not Active | Not Active | – |
| C=C(/C=C/P(=O)(O)O)Cn1cnc2c(O)nc(N)nc21 | – | < 4.00 | 3.92 | 1.8 | > 1000 | Not Active | Not Active | – | Not Active | Not Active |
